# “And” between values parts separate entries of the source, which are not always exact repeats. Equal values may be shown once.
# Key:
# [1] = tested on: non-malignant MCF10A cells; assay: Toxicity to normal cells; assay type: cell-based
# [2] = tested on: FACS-isolated ALDH+CD133+ A2780 cells; assay: Single-cell microfluidic culture cell death; assay type: cell-based; details: microfluidic chips, 72 h
# platinum-resistant PDX = assay: Chemotherapy-resistant patient-derived xenograft; assay type: in vivo, mice; details: 673A added to carboplatin or cisplatin
# splenocytes = assay: ALDEFLUOR activity in splenocytes of treated animals; assay type: in vivo, mice; details: animals being treated with 673A
# [3] = tested on: OVCAR5-ALDH1A3-knockout (KO) cells; assay: 673 dose-response in CRISPR knockout cells; assay type: cell-based
# ALDH1A3 = ALDH1A3 (Homo sapiens, UniProt P47895); assay: ALDH enzymatic activity, in vitro inhibition; assay type: biochemical; details: IC50 ALDH1A3, in vitro enzymatic assay, propionaldehyde/NAD+
# CaoV3 cells = assay: Minimal residual disease model, CaoV3 subcutaneous; details: 3 weeks treatment, 6 months follow-up
# ALDH2 = ALDH2 (Homo sapiens, UniProt P05091); assay: biochemical
# [4] = tested on: primary patient cells (HGS); assay: Tumor sphere growth assay; assay type: cell-based, human; details: single 12.5 μM dose
# [5] = tested on: FACS-sorted CD133+ (A2780) cells; assay: Annexin-V/PI FACS analysis of apoptosis; assay type: cell-based; details: 12.5 μM
# PEO1 cells = assay: ALDEFLUOR assay of ALDH activity in live PEO1 cells; assay type: cell-based
# [6] = tested on: bulk cells, multiple cell lines; assay: Bulk cell viability in multiple cell lines; assay type: cell-based
# [7] = tested on: CD133+ cells (A2780, OVSAHO, OvCAR5); assay: Depletion of CD133+ CSC by FACS 72 h after treatment; assay type: cell-based
# ALDH1A1 = ALDH1A1 (Homo sapiens, UniProt P00352); assay: ALDH enzymatic activity, in vitro inhibition; assay type: biochemical; details: IC50 ALDH1A1, in vitro enzymatic assay, propionaldehyde/NAD+
# SKOv3 cells = assay type: in vivo, mice
# [8] = tested on: FACS-sorted ALDH+ SKOv3 cells; assay: Intraperitoneal ALDH+ SKOv3 survival study
# [9] = tested on: Ovsaho, HEY-1, and A2780 cell-line xenografts; assay: Cell-line xenografts, single agent
# [10] = tested on: chemotherapy-resistant SKOv3 cells; assay: Cellular recovery assay with cisplatin; assay type: cell-based; details: for cellular recovery: SKOv3, 9 days after treatment, single agent
# [11] = tested on: primary cells from HGSC patients; assay: Seahorse mitochondrial flux analysis; assay type: cell-based, human; details: 12.5 μM
# CD133+ cells = assay: Intracellular calcium level; assay type: cell-based
# ALDH1A2 = ALDH1A2 (Homo sapiens, UniProt O94788); assay: ALDH enzymatic activity, in vitro inhibition; assay type: biochemical; details: IC50 ALDH1A2, in vitro enzymatic assay, propionaldehyde/NAD+
# [12] = Hematologic, renal, and liver function tests; assay type: in vivo; details: liver function tests, 673A added to cisplatin
# [13] = tested on: other ALDH family members; assay: ALDH enzymatic activity, in vitro inhibition; assay type: biochemical; details: in vitro enzymatic assay
# [14] = biological target: ALDH1A1 Cys303 in SKOv3 tumors (Homo sapiens, UniProt P00352); assay: isoTOP-ABPP of ALDH1A in tumors in vivo; design: species or system mice; details: 673A-treated tumors
# [15] = tested on: endometrioid ovarian cancer
# [16] = tested on: human mesenchymal stem cells; assay: Toxicity to normal cells; assay type: cell-based
# Sequence of ALDH2 (P05091 18-517): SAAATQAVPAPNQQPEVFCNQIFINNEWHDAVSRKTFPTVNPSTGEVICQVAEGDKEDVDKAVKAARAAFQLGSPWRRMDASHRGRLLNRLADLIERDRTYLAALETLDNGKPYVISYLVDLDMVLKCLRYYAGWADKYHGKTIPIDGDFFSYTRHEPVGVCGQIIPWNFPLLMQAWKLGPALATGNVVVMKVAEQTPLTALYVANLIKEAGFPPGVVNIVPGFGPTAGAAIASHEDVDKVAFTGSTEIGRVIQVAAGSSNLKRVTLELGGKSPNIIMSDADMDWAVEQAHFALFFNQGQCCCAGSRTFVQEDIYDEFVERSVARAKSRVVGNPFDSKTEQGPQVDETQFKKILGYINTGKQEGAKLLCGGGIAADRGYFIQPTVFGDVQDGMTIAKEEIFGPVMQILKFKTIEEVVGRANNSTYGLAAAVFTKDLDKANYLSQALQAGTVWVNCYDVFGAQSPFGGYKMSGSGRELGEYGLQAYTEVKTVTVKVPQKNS
# Sequence of ALDH1A3 (P47895 whole entry): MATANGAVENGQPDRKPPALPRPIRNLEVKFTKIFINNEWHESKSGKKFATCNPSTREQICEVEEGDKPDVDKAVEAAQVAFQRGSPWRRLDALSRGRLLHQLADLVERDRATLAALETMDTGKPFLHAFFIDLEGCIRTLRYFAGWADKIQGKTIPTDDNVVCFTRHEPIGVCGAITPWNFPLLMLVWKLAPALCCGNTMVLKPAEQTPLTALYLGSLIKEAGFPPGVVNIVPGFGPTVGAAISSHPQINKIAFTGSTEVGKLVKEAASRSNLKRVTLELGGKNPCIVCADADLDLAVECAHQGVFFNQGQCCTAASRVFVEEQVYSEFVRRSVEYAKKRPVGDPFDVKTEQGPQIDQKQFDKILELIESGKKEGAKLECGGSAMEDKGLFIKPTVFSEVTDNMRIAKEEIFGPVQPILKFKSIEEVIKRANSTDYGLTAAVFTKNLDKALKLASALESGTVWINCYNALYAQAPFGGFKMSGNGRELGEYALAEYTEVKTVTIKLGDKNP
# Sequence of ALDH1A1 (P00352 whole entry): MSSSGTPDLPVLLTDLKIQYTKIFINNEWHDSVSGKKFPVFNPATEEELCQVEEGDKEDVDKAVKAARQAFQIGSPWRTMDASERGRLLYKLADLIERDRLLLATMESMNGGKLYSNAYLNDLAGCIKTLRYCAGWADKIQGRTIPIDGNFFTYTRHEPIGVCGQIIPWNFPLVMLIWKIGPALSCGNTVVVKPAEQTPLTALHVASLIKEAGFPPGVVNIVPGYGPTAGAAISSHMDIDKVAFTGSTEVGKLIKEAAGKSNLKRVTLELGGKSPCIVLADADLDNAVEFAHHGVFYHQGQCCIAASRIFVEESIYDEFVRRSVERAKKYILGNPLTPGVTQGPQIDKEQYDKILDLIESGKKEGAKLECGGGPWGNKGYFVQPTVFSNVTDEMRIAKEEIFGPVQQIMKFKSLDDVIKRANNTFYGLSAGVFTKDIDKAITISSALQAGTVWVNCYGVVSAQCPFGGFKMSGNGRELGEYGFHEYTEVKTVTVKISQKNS
# Sequence of ALDH1A2 (O94788 whole entry): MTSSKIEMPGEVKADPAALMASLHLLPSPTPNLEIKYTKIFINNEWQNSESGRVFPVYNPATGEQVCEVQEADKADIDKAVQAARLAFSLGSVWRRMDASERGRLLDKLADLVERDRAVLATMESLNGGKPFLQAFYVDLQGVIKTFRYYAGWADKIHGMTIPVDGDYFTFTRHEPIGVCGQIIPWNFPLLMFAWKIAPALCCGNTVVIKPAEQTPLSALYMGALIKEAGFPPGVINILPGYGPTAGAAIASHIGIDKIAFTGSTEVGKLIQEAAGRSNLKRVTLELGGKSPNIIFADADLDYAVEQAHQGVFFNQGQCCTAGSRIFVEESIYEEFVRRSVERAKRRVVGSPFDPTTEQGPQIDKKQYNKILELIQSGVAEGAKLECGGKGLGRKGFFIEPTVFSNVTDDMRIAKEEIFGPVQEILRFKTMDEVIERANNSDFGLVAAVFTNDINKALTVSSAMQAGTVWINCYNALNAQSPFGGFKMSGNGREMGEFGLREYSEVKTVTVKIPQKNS
# Sequence of ALDH1A1 Cys303 in SKOv3 tumors (P00352 whole entry): as the sequence (P00352 whole entry) above
smiles,measurement,setting,value
"O=Cc1ccc(N2Cc3ccccc3C2)cc1 [673A, 4-(1,3-dihydro-2H-isoindol-2-yl)benzaldehyde]",toxicity to non-malignant MCF10A cells,[1],little or no toxicity
same,treated cells that died,[2],> 90%
same,reduction of final tumor weight,platinum-resistant PDX,more than 2 fold
same,decrease of ALDEFLUOR activity in splenocytes,splenocytes,3 fold
same,increase in TD50 versus control cells,[3],~ 10 ×
same,IC50,ALDH1A3,0.348 µM and < 0.35 µM
same,mice that developed tumors,CaoV3 cells; cisplatin and 673A,40%
same,mice that developed tumors,CaoV3 cells; single agent,50%
same,IC50,ALDH2,14 µM and ~15 µM
same,average reduction in tumor sphere formation,[4],19 fold
same,induction of annexin-V,[5],no significant early or late induction of annexin-V
same,inhibition at 25 µM,"PEO1 cells; Homo sapiens, PEO1, 6 h, read-out: inhibition of ALDEFLUOR activity",98%
same,time to inhibition of PEO1 ALDEFLUOR activity,"PEO1 cells; PEO1 cells, persisted after 6 h",≤ 1 h
same,TD50 bulk cell viability,[6],40 to 80 µM
same,depletion of CD133+ CSCs / toxicity,[7],highly effective at preferentially depleting CD133^+ CSC
same,IC50,ALDH1A1,0.246 µM and < 0.35 µM
same,tumor initiation capacity,SKOv3 cells; 673A combined with cisplatin therapy,eliminated tumor initiation capacity
same,reduction in tumor growth versus no treatment or cisplatin therapy,"SKOv3 cells; SKOv3 treated in vitro 12.5 μM, 48 h, 5,000 live cells injected",4–5 fold
same,reduction of tumor initiation,"SKOv3 cells; limiting dilution assay, 673A alone",~ 50%
same,mice disease free at 6 months,[8]; cisplatin and 673A,62%
same,reduction of tumor burden,[9]; 20 mg/kg daily for 21 days,40%–60%
same,reduction of tumor growth as a single agent,"[9]; in vivo, single agent",> 50%
same,reduction in cell number,"[10]; SKOv3, 9 days after combined treatment of cisplatin and 673A",30 fold
same,cellular recovery,[10],100%
same,OXPHOS capacity,[11],decreased OXPHOS capacity
same,increase in intracellular Ca,CD133+ cells; 16 h after treatment,1.5 fold
same,increase in intracellular Ca,CD133+ cells; 24 h after treatment,6 fold
same,IC50,ALDH1A2,0.23 µM and < 0.35 µM
same,toxicity with addition to cisplatin,[12],no additional toxicity
same,inhibition of other ALDH family members tested,[13],minimal or no inhibition
same,engagement of ALDH1A1 catalytic residue,[14],clear protection of the catalytic residue Cys303 in ALDH1A1
same,mice tumor free at conclusion of experiment,[15]; carboplatin weekly and 673A 20 mg/kg daily for 7 weeks,27%
same,toxicity to human mesenchymal stem cells,[16],little or no toxicity
"CCN(CC)c1ccc(C=O)cc1 [DEAB, N,N-diethylaminobenzaldehyde, reference compound]",inhibition of ALDEFLUOR activity,"PEO1 cells; PEO1 cells, 6 h, equimolar doses (25 μM)",40%
same,depletion of CD133+ CSCs / toxicity,[7],preferential depletion of CD133^+ cells
"CCN(CC)C(=S)SSC(=S)N(CC)CC [DSF, disulfiram, reference compound]",effect on cancer growth,"SKOv3 cells; SKOv3 treated in vitro, 5,000 live cells injected",no effect on cancer growth
"N.N.O=C([O-])C1(C(=O)[O-])CCC1.[Pt+2] [carboplatin, reference compound]",mice tumor free after therapy,"[15]; carboplatin alone, 25 mg/kg weekly",16%
"N.N.[Cl][Pt][Cl] [cisplatin, reference compound]",mice that developed tumors,CaoV3 cells; single agent,Ninety
same,mice that died,[8]; cisplatin only,100%
same,cellular recovery,[10],100%
"O=c1c(-c2ccc(O)cc2)coc2cc(O[C@@H]3O[C@H](CO)[C@@H](O)[C@H](O)[C@H]3O)ccc12 [daidzin, reference compound]",depletion of CD133+ CSCs / toxicity,[7],no significant toxicity
same,therapeutic benefit of addition to cisplatin,"[10]; SKOv3, added to cisplatin",No therapeutic benefit

# Reference: publication PMC7061440 (Cell reports, 2019)
